From publication PMC9743095 (Journal of Medicinal Chemistry, 2022)
Like-named read-outs stand apart in the source and are kept apart here.

Columns and labels:
Test in all cases: cells
Format in all cases: cell-based
MOLT-4 = conditions: Homo sapiens; for CC50: read-out: LC50; for Emax: read-out: MI%
Procedure: (§1) The assay was contracted and carried out by WuXi AppTec (Shanghai) Co., Ltd. The tumor cell lines CCRF-CEM, HL-60, KG-1, MOLT-4, K562, MV4-11, THP-1, HEL92.1.7, NCI-H929, RPMI-8226, Jurkat, Z138, RL, HS445, HepG2, MCF-7, Bx-PC-3, HT29, MIA PaCa-2, and SW620 were seeded at cell densities of […] 10^3 cells/well in a 96-well plate the day before drug incubation. Then, the plates were incubated for 72 h with the different concentrations of compound to be tested. After the incubation period, 50 μL of MTS was added and the tumor cells were incubated for 4 h at 37 °C. The data were read and collected by a Spectra Max 340 absorbance microplate reader. The compounds were tested in duplicate with nine serial concentrations (3.16-fold titrations with 198 μM as the highest concentration), and the data were analyzed by XLfit software.

K562 = conditions: Homo sapiens; for CC50: read-out: LC50; for Emax: read-out: MI%
Procedure: as §1

KG-1 = conditions: Homo sapiens, KG-1, 72 h, read-out: LC50
Procedure: as §1

CCRF-CEM = conditions: Homo sapiens, 72 h; for CC50: read-out: LC50; for Emax: read-out: MI%
Procedure: as §1

HL-60 = conditions: Homo sapiens; for CC50: read-out: LC50; for Emax: read-out: MI%
Procedure: as §1

HepG2 = conditions: Homo sapiens; for CC50: read-out: LC50; for Emax: read-out: MI%
Procedure: as §1

MCF-7 = conditions: Homo sapiens, MCF7, 72 h; for CC50: read-out: LC50; for Emax: read-out: MI%
Procedure: as §1

SW620 = conditions: for CC50: Homo sapiens, SW-620, 72 h, read-out: LC50; for MI%: SW620, maximum inhibitory effect over concentration range
Procedure: as §1

THP-1 = conditions: for CC50: Homo sapiens, THP-1, 72 h, read-out: LC50; for MI%: THP-1, maximum inhibitory effect over concentration range
Procedure: as §1

RL = conditions: for CC50: Homo sapiens, 72 h, read-out: LC50; for MI%: maximum inhibitory effect over concentration range
Procedure: as §1

RPMI-8226 = conditions: for CC50: Homo sapiens, RPMI-8226, 72 h, read-out: LC50; for MI%: RPMI-8226, maximum inhibitory effect over concentration range
Procedure: as §1

NCI-H929 = conditions: for CC50: Homo sapiens, NCI-H929, 72 h, read-out: LC50; for MI%: NCI-H929, maximum inhibitory effect over concentration range
Procedure: as §1

HEL92.1.7 = conditions: for MI%: HEL92.1.7, maximum inhibitory effect over concentration range; for CC50: Homo sapiens, HEL 92.1.7, 72 h, read-out: LC50
Procedure: as §1

HT29 = conditions: for MI%: HT29, maximum inhibitory effect over concentration range; for CC50: Homo sapiens, HT-29, 72 h, read-out: lC50
Procedure: as §1

Jurkat = conditions: Jurkat; for CC50: Homo sapiens, 72 h, read-out: LC50; for MI%: maximum inhibitory effect over concentration range
Procedure: as §1

BxPC-3 = conditions: for MI%: BxPC-3, maximum inhibitory effect over concentration range; for CC50: Homo sapiens, BXPC-3, 72 h, read-out: LC50
Procedure: as §1

HS445 = conditions: for MI%: HS445, maximum inhibitory effect over concentration range; for CC50: Homo sapiens, Hs 445, 72 h, read-out: LC50
Procedure: as §1

MIA PaCa-2 = conditions: for CC50: Homo sapiens, MIA PaCa-2, 72 h, read-out: LC50; for MI%: MIA PaCa-2, maximum inhibitory effect over concentration range
Procedure: as §1

MV4-11 = conditions: for CC50: Homo sapiens, MV4-11, 72 h, read-out: LC50; for MI%: MV4-11, maximum inhibitory effect over concentration range
Procedure: as §1

Z138 = tested on: Z138
Procedure: as §1

Q: What does the source list for C[C@H](NP(=O)(Oc1ccccc1)O[C@@H]1C[C@@H](COP(=O)(N[C@H](C)C(=O)OCc2ccccc2)Oc2ccccc2)O[C@H]1n1cnc2c(N)ncnc21)C(=O)OCc1ccccc1 (some centres unmarked) [Compound 5a]?
A: CC50 (MOLT-4; MOLT-4, 72 h): 62.9 µM; Emax (MOLT-4; MOLT-4, 72 h): 75%; CC50 (K562; K562, 72 h): 26.3 µM; Emax (K562; K562, 72 h): 78%; CC50 (KG-1): 112 µM; CC50 (CCRF-CEM): 64.8 µM; Emax (CCRF-CEM): 65%; CC50 (HL-60; HL-60, 72 h): 143 µM; Emax (HL-60; HL-60, 72 h): 57%; CC50 (HepG2; HepG2, 72 h): 85.5 µM; CC50 (MCF-7): 10.3 µM; Emax (MCF-7): 97%

Q: Which results are given for C[C@H](N[P@@](=O)(OC[C@@H]1C[C@@H](O)[C@H](n2cnc3c(N)ncnc32)O1)Oc1ccccc1)C(=O)OCc1ccccc1 [Rp-7a]?
A: CC50 (MOLT-4; MOLT-4, 72 h): 0.57 µM; Emax (MOLT-4; MOLT-4, 72 h): 98%; CC50 (SW620): 29 µM; MI% (SW620): 82%; CC50 (K562; K562, 72 h): 2.6 µM; Emax (K562; K562, 72 h): 95%; CC50 (THP-1): 35 µM; MI% (THP-1): 91%; CC50 (KG-1): 14 µM; CC50 (RL): 4 µM; MI% (RL): 96.8%; CC50 (RPMI-8226): 25 µM; MI% (RPMI-8226): 90.8%; CC50 (CCRF-CEM): 1.86 µM; Emax (CCRF-CEM): 97%; CC50 (NCI-H929): 19 µM; MI% (NCI-H929): 97%; MI% (HEL92.1.7): 98%; CC50 (HEL92.1.7): 11 µM; MI% (HT29): 97%; CC50 (HT29): 16 µM; CC50 (Jurkat): 2.82 µM; MI% (Jurkat): 97%; MI% (BxPC-3): 71%; CC50 (BxPC-3): 74 µM; MI% (HS445): 99%; CC50 (HS445): 42 µM; CC50 (MIA PaCa-2): 14 µM; MI% (MIA PaCa-2): 96%; CC50 (MV4-11): 0.98 µM; MI% (MV4-11): 100%; CC50 (HL-60; HL-60, 72 h): 8.7 µM; Emax (HL-60; HL-60, 72 h): 100%; CC50 (HepG2; HepG2, 72 h): 32 µM; Emax (HepG2; HepG2, 72 h): 78%; CC50 (MCF-7): 2.94 µM; Emax (MCF-7): 97%

Q: C[C@H](N[P@](=O)(OC[C@@H]1C[C@@H](O)[C@H](n2cnc3c(N)ncnc32)O1)Oc1ccccc1)C(=O)OCc1ccccc1 [Sp-7a] was tested. Which CC50 (MOLT-4; MOLT-4, 72 h) did it give?
A: 0.43 µM

Q: And the Emax (MOLT-4; MOLT-4, 72 h)?
A: 98%

Q: And the CC50 (SW620)?
A: 35 µM

Q: And the MI% (SW620)?
A: 87%

Q: And the CC50 (K562; K562, 72 h)?
A: 3 µM

Q: And the Emax (K562; K562, 72 h)?
A: 96%

Q: And the CC50 (THP-1)?
A: 66 µM

Q: And the MI% (THP-1)?
A: 69%

Q: And the CC50 (KG-1)?
A: 18 µM

Q: What about the CC50 (RL) of the same compound?
A: 2.64 µM

Q: And the MI% (RL)?
A: 92.6%

Q: What about the CC50 (RPMI-8226) of the same compound?
A: 19 µM

Q: And the MI% (RPMI-8226)?
A: 86.8%

Q: What about the CC50 (CCRF-CEM) of the same compound?
A: 2.04 µM

Q: What about the Emax (CCRF-CEM) of the same compound?
A: 97%

Q: And the CC50 (NCI-H929)?
A: 16 µM

Q: What about the MI% (NCI-H929) of the same compound?
A: 94%

Q: And the MI% (HEL92.1.7)?
A: 100%

Q: And the CC50 (HEL92.1.7)?
A: 11 µM

Q: And the MI% (HT29)?
A: 95%

Q: What about the CC50 (HT29) of the same compound?
A: 25 µM

Q: What about the CC50 (Jurkat) of the same compound?
A: 2.29 µM

Q: And the MI% (Jurkat)?
A: 90%

Q: And the MI% (BxPC-3)?
A: 73%

Q: What about the CC50 (BxPC-3) of the same compound?
A: 99 µM

Q: And the MI% (HS445)?
A: 75%

Q: And the CC50 (HS445)?
A: 67 µM

Q: And the CC50 (MIA PaCa-2)?
A: 18 µM

Q: What about the MI% (MIA PaCa-2) of the same compound?
A: 94%

Q: What about the CC50 (MV4-11) of the same compound?
A: 1.03 µM

Q: And the MI% (MV4-11)?
A: 100%

Q: And the CC50 (HL-60; HL-60, 72 h)?
A: 11 µM

Q: And the Emax (HL-60; HL-60, 72 h)?
A: 92%

Q: And the CC50 (HepG2; HepG2, 72 h)?
A: 57 µM

Q: What about the Emax (HepG2; HepG2, 72 h) of the same compound?
A: 73%

Q: What about the CC50 (MCF-7) of the same compound?
A: 5.87 µM

Q: What about the Emax (MCF-7) of the same compound?
A: 94%

Q: Which results are given for C[C@H](NP(=O)(N[C@@H](C)C(=O)OCc1ccccc1)OC[C@@H]1C[C@@H](O)[C@H](n2cnc3c(N)ncnc32)O1)C(=O)OCc1ccccc1 [Compound 9]?
A: CC50 (MOLT-4; MOLT-4, 72 h): 3.52 µM; Emax (MOLT-4; MOLT-4, 72 h): 100%; CC50 (K562; K562, 72 h): 24.3 µM; Emax (K562; K562, 72 h): 97%; CC50 (KG-1): 34.1 µM; CC50 (CCRF-CEM): 7.03 µM; Emax (CCRF-CEM): 100%; CC50 (HL-60; HL-60, 72 h): 16.5 µM; Emax (HL-60; HL-60, 72 h): 100%; CC50 (HepG2; HepG2, 72 h): 157 µM; Emax (HepG2; HepG2, 72 h): 55%; CC50 (MCF-7): 13 µM; Emax (MCF-7): 97%

Q: For CC(=O)O[C@H]1C(=O)[C@@]2(C)[C@H]([C@H](OC(=O)c3ccccc3)[C@]3(O)C[C@H](OC(=O)[C@H](O)[C@@H](NC(=O)c4ccccc4)c4ccccc4)C(C)=C1C3(C)C)[C@]1(OC(C)=O)CO[C@@H]1C[C@@H]2O [PTX, paclitaxel, reference compound], which Emax (MOLT-4; 72 h, MOLT-4, maximum inhibitory effect over concentration range) is on record?
A: 97%

Q: And the CC50 (MOLT-4; MOLT-4, 72 h)?
A: 0.002 µM

Q: And the CC50 (SW620)?
A: 0.02 µM

Q: What about the MI% (SW620) of the same compound?
A: 96%

Q: And the Emax (K562; 72 h, K562, maximum inhibitory effect over concentration range)?
A: 94%

Q: And the CC50 (K562; K562, 72 h)?
A: 0.008 µM

Q: What about the CC50 (THP-1) of the same compound?
A: 0.03 µM

Q: What about the MI% (THP-1) of the same compound?
A: 72%

Q: What about the CC50 (KG-1) of the same compound?
A: 0.07 µM

Q: What about the CC50 (RL) of the same compound?
A: 0.003 µM

Q: And the MI% (RL)?
A: 83%

Q: What about the CC50 (RPMI-8226) of the same compound?
A: 0.003 µM

Q: And the MI% (RPMI-8226)?
A: 91%

Q: And the Emax (CCRF-CEM; maximum inhibitory effect over concentration range)?
A: 95%

Q: What about the CC50 (CCRF-CEM) of the same compound?
A: 0.003 µM

Q: What about the CC50 (NCI-H929) of the same compound?
A: 0.003 µM

Q: What about the MI% (NCI-H929) of the same compound?
A: 82%

Q: And the MI% (HEL92.1.7)?
A: 83%

Q: And the CC50 (HEL92.1.7)?
A: 0.02 µM

Q: What about the MI% (HT29) of the same compound?
A: 75%

Q: What about the CC50 (HT29) of the same compound?
A: 0.004 µM

Q: What about the CC50 (Z138; Homo sapiens, Z-138, 72 h, read-out: LC50) of the same compound?
A: 0.002 µM

Q: And the MI% (Z138; Z138, maximum inhibitory effect over concentration range)?
A: 99%

Q: What about the CC50 (Jurkat) of the same compound?
A: 0.005 µM

Q: What about the MI% (Jurkat) of the same compound?
A: 97%

Q: What about the MI% (BxPC-3) of the same compound?
A: 42%

Q: What about the CC50 (BxPC-3) of the same compound?
A: > 0.5 µM

Q: What about the MI% (HS445) of the same compound?
A: 74%

Q: What about the CC50 (HS445) of the same compound?
A: 0.01 µM

Q: What about the CC50 (MIA PaCa-2) of the same compound?
A: 0.002 µM

Q: What about the MI% (MIA PaCa-2) of the same compound?
A: 87%

Q: And the CC50 (MV4-11)?
A: 0.01 µM

Q: What about the MI% (MV4-11) of the same compound?
A: 99%

Q: And the Emax (HL-60; 72 h, HL-60, maximum inhibitory effect over concentration range)?
A: 96%

Q: And the CC50 (HL-60; HL-60, 72 h)?
A: 0.004 µM

Q: And the Emax (HepG2; 72 h, HepG2, maximum inhibitory effect over concentration range)?
A: 54%

Q: What about the CC50 (MCF-7) of the same compound?
A: 0.003 µM

Q: What about the Emax (MCF-7; MCF-7, maximum inhibitory effect over concentration range) of the same compound?
A: 79%
